In patent publication US6440440B1, “Biocidal benzylbiphenyl derivatives” (priority 1998, dated 2002):

Key:
Assay type in all cases: cell-based
Escherichia coli = assay: Primary bacteria screening; conditions: test compound concentration 500 μMol in tryptose broth agar, 27° C.
Description: (§1) The stock solutions with the test compounds were pipetted into multiwell plates and mixed with warm tryptose broth agar (2.6%) in order to reach a test compound concentration of 500 μMol. The medium was allowed to cool and subsequently inoculated with the bacteria. Wells were placed in an incubator at 27° C. and a relative humidity of 70%. After sufficient growth of the untreated cultures, the test was evaluated.
(§2) 3: complete inhibition of bacterial growth
(§3) 2: bacterial growth partially controlled

Pseudomonas aeruginosa = assay: Primary bacteria screening; conditions: test compound concentration 500 μMol in tryptose broth agar, 27° C.
Description: as §1, §2, §3

Debaryomyces hansenii = assay: Screening against yeasts; conditions: test compound concentration 500 μM
Description: as §1, §2, §3
(§4) A number of compounds of formula (I) were also tested in a screening against certain The test conditions are the same as described in biological example C.1. The concentration of the test compound was also 500 μmol, and the scoring system used was also the same.
Debaryomyces hansenii (19)

Rhodotorula rubra [1] = assay: Screening against yeasts; conditions: test compound concentration 500 μmol
Description: as §1, §2, §3, §4

Sporobolomyces roseus = assay: Screening against yeasts; conditions: test compound concentration 500 μmol
Description: as §1, §2, §3, §4
Sporobolomyces roseus (21)

Cellulomonas flavigena = assay: Poison plate assay, synergistic effect in combinations with BIT; conditions: for Calculated activity: Limpel's formula
Description: (§5) Biocidal activity against bacterial/yeast growth was determined with the poison plate assay. To obtain the required concentrations of the test compound, calculated amounts of stock solutions (DMSO) were pipetted into multi-well plates. Tryptose agar (except for Rhodotorula: PDA) was added aseptically and uniform distribution was obtained by shaking. Each plate was inoculated with a bacterial/yeast suspension. After incubation at 27° C. and 70% relative humidity, for a period long enough to allow complete growth of controls, percentage activity as compared to the control was scored.
(§6) Possible synergy was investigated using Limpel's formula (Richter, D. L., Pestic. Sci. 1987, 19: 309-315): [formula]
(§7) where EC is the expected additive response, or calculated activity, X is the observed percentage control when compound A is applied alone and Y is the observed percentage control when compound B is applied alone. Synergy was considered to occur when the observed effect, or measured activity, of a combination of both compounds was greater than the corresponding EC value.
(§8) The table C.4 to C.6 below enumerate the measured and calculated activities of BIT and compounds 20, 42 and 40 when tested as a single test compound or as a combination against Rhodotorula rubra or Cellulomonas flavigena. BIT (1,2-benzisothiazol-3(2H)-one) is a well-known bacteride and was tested at a concentration of 25 and 50 μmol. Compounds 20, 40 and 42 were tested at a concentration of 25, 50 and 75 μmol. When a synergistic effect was observed, the “measured” and “calculated” activity are indicated with a bold typeface.

Rhodotorula rubra [2] = assay: as above; conditions: for Calculated activity: Limpel's formula
Description: as §5, §6, §7, §8

Providencia rettgeri = assay: Poison plate assay, combinations with BAC; conditions: for Calculated activity: Limpel's formula
Description: as §5, §6, §7
The table C.7 to C.8 below enumerate the measured and calculated activities of BAC and compounds 20, 42 and 40 when tested as a single test compound or as a combination against Providencia rettgeri. BAC (benzalconium chloride) is a well-bacteride and was tested at a concentration of 40 and 80 μmol. Compounds 20, 40 and 42 were tested at a concentration of 10, 20, 40, 80 and 160 μmol. When a synergistic effect was observed, the “measured” and “calculated” activity are indicated with a bold typeface.

[3] = combination BIT 25 μmol + compound 25 μmol
[4] = combination BIT 25 μmol + compound 50 μmol
[5] = combination BIT 25 μmol + compound 75 μmol
[6] = combination BIT 50 μmol + compound 25 μmol
[7] = combination BIT 50 μmol + compound 50 μmol
[8] = combination BIT 50 μmol + compound 75 μmol

## Cl.Cl.O.c1ccc(-c2ccc(C(c3ccccc3)C3CCN(C4CCNCC4)CC3)cc2)cc1 (racemic) [Co. No. 20, (±)-4-[[(1,1′-biphenyl)-4-yl]phenylmethyl](1,4′-bipiperidine)dihydrochloride monohydrate]
Escherichia coli
  E. coli (growth inhibition score): 3
Pseudomonas aeruginosa
  P. aeruginosa (growth inhibition score): 3
Debaryomyces hansenii
  Test yeast (19) Debaryomyces hansenii (score): 3
Rhodotorula rubra [1]
  Test yeast (20) Rhodotorula rubra (score): 3
Sporobolomyces roseus
  Test yeast (21) Sporobolomyces roseus (score): 3
Cellulomonas flavigena; BIT 25 μmol + compound 25 μmol
  Calculated activity: 0%
Cellulomonas flavigena; BIT 25 μmol + compound 50 μmol
  Calculated activity: 0%
Cellulomonas flavigena; BIT 25 μmol + compound 75 μmol
  Calculated activity: 0%
Cellulomonas flavigena; BIT 50 μmol + compound 25 μmol
  Calculated activity: 100%
Cellulomonas flavigena; BIT 50 μmol + compound 50 μmol
  Calculated activity: 100%
Cellulomonas flavigena; BIT 50 μmol + compound 75 μmol
  Calculated activity: 100%
Cellulomonas flavigena; [3]
  Measured activity: 0%
Cellulomonas flavigena; [4]
  Measured activity: 100%
Cellulomonas flavigena; [5]
  Measured activity: 95%
Cellulomonas flavigena; [6]
  Measured activity: 100%
Cellulomonas flavigena; [7]
  Measured activity: 100%
Cellulomonas flavigena; [8]
  Measured activity: 100%
Cellulomonas flavigena; compound alone 25 μmol
  Measured activity: 0%
Cellulomonas flavigena; compound alone 50 μmol
  Measured activity: 0%
Cellulomonas flavigena; compound alone 75 μmol
  Measured activity: 0%
Rhodotorula rubra [2]; BIT 25 μmol + compound 25 μmol
  Calculated activity: 0%
Rhodotorula rubra [2]; BIT 25 μmol + compound 50 μmol
  Calculated activity: 0%
Rhodotorula rubra [2]; BIT 25 μmol + compound 75 μmol
  Calculated activity: 0%
Rhodotorula rubra [2]; BIT 50 μmol + compound 25 μmol
  Calculated activity: 0%
Rhodotorula rubra [2]; BIT 50 μmol + compound 50 μmol
  Calculated activity: 0%
Rhodotorula rubra [2]; BIT 50 μmol + compound 75 μmol
  Calculated activity: 0%
Rhodotorula rubra [2]; [3]
  Measured activity: 0%
Rhodotorula rubra [2]; [4]
  Measured activity: 100%
Rhodotorula rubra [2]; [5]
  Measured activity: 100%
Rhodotorula rubra [2]; [6]
  Measured activity: 100%
Rhodotorula rubra [2]; [7]
  Measured activity: 100%
Rhodotorula rubra [2]; [8]
  Measured activity: 100%
Rhodotorula rubra [2]; compound alone 25 μmol
  Measured activity: 0%
Rhodotorula rubra [2]; compound alone 50 μmol
  Measured activity: 0%
Rhodotorula rubra [2]; compound alone 75 μmol
  Measured activity: 0%
Providencia rettgeri; BAC 40 μmol + compound 10 μmol
  Calculated activity: 0%
Providencia rettgeri; BAC 40 μmol + compound 20 μmol
  Calculated activity: 0%
Providencia rettgeri; BAC 40 μmol + compound 40 μmol
  Calculated activity: 30%
Providencia rettgeri; BAC 40 μmol + compound 80 μmol
  Calculated activity: 90%
Providencia rettgeri; BAC 40 μmol + compound 160 μmol
  Calculated activity: 100%
Providencia rettgeri; BAC 80 μmol + compound 10 μmol
  Calculated activity: 100%
Providencia rettgeri; BAC 80 μmol + compound 20 μmol
  Calculated activity: 100%
Providencia rettgeri; BAC 80 μmol + compound 40 μmol
  Calculated activity: 100%
Providencia rettgeri; BAC 80 μmol + compound 80 μmol
  Calculated activity: 100%
Providencia rettgeri; BAC 80 μmol + compound 160 μmol
  Calculated activity: 100%
Providencia rettgeri; combination BAC 40 μmol + compound 10 μmol
  Measured activity: 50%
Providencia rettgeri; combination BAC 40 μmol + compound 20 μmol
  Measured activity: 50%
Providencia rettgeri; combination BAC 40 μmol + compound 40 μmol
  Measured activity: 100%
Providencia rettgeri; combination BAC 40 μmol + compound 80 μmol
  Measured activity: 100%
Providencia rettgeri; combination BAC 40 μmol + compound 160 μmol
  Measured activity: 100%
Providencia rettgeri; combination BAC 80 μmol + compound 10 μmol
  Measured activity: 100%
Providencia rettgeri; combination BAC 80 μmol + compound 20 μmol
  Measured activity: 100%
Providencia rettgeri; combination BAC 80 μmol + compound 40 μmol
  Measured activity: 100%
Providencia rettgeri; combination BAC 80 μmol + compound 80 μmol
  Measured activity: 100%
Providencia rettgeri; combination BAC 80 μmol + compound 160 μmol
  Measured activity: 100%
Providencia rettgeri; compound alone 10 μmol
  Measured activity: 0%
Providencia rettgeri; compound alone 20 μmol
  Measured activity: 0%
Providencia rettgeri; compound alone 40 μmol
  Measured activity: 30%
Providencia rettgeri; compound alone 80 μmol
  Measured activity: 90%
Providencia rettgeri; compound alone 160 μmol
  Measured activity: 100%

## O=c1[nH]sc2ccccc12 [BIT, 1,2-benzisothiazol-3(2H)-one, reference compound]
Cellulomonas flavigena; BIT alone 25 μmol
  Measured activity: 0%
Cellulomonas flavigena; BIT alone 50 μmol
  Measured activity: 100%
Rhodotorula rubra [2]; BIT alone 25 μmol
  Measured activity: 0%
Rhodotorula rubra [2]; BIT alone 50 μmol
  Measured activity: 0%
